We go through one compound from article PMC10704437, “Sterol-activated amyloid beta fibril formation” (The Journal of Biological Chemistry, 2023).

The target of one experiment is T1, Aβ42 monomer (Homo sapiens, UniProt P05067).
T1 construct: Small red spheres mark the Aβ42 peptide C-terminal residue, A42; purchased Sigma-Aldrich Corp
Description: Sterol binding to Aβ42, equilibrium DHE fluorescence titrations. Particulars: direct Aβ42 titration of DHE fluorescence; single-binding-site fit; K2PO4 50 mM, pH 7.4, 25 °C; read-out: Kd. The method, then: CH ([27]) and CS ([28]) increase the rate of Aβ aggregation and CH is thought to stabilize fibrils ([29]); yet, the affinities of CH and its metabolites for the Aβ peptide monomer have not been determined. Here, CH and CS affinities for the Aβ42 monomer are established using dehydroergosterol (DHE)—a fluorescent CH analog ([30]) used as a competitive probe to determine CH and CS affinities. Aβ42 monomers were prepared as previously described ([31]) (see Methods). […] Under this condition, Aβ42 essentially quantitatively binds DHE until its concentration exceeds that of DHE, which results in a breakpoint in the titration curve that yields the stoichiometry. The arrow seen descending from the breakpoint indicates a stoichiometry of 1:1, which agrees well with the ∼1:1 CH-metabolite:Aβ stoichiometry estimated from analysis of senile plaques micro-dissected from AD-patient brain tissue ([15]).
Figure 1 Sterol binding to Aβ42at equilibrium.A, DHE affinity for monomeric Aβ4_2. […] Binding was detected via the binding-induced 4.4 (±0.2)-fold increase in DHE fluorescence (λex = 325 nm, λem= 375 nm). Fluorescence intensity, I, is plotted relative to the intensity at zero titrant, I0. Titrations were performed independently in triplicate and the line passing through the data is the least-squares fit to a single-binding-site model. B, Aβ42:DHE stoichiometry. […] C. DHE fluorescence (λex = 325 nm, λem = 375 nm) is plotted versus [Aβ42]/[DHE]. The line descending from the titration breakpoint indicates a stoichiometry of 1:1. C and D, CH and CS affinities. Affinities were determined by competitive binding versus DHE. […] C, was titrated with CH (5.0–500 nM, 0.05–5 × Kd) or CS (5.0–500 nM, 0.15–[…] × Kd). Binding was monitored via the decrease in DHE fluorescence (λex = 325, λem = 375) caused by DHE displacement from Aβ42. Controls ensured that <2.0% of Aβ42 oligomerized during the measurement. Titrations were performed in triplicate and averaged. The solid lines through the data represent least-squares fits to a competitive single-binding-site model. C and D, insets highlight the behavior of the titration over ligand concentrations that span their reported CMCs (indicated by arrows). […]
DHE/Aβ42 binding interactions were monitored via the binding-induced 4.4-fold change in DHE fluorescence (λex = 325 nm, λem= 375 nm). […]
The affinities of CH and CS for Aβ42 were determined in competitive binding studies versus DHE. Binding was detected via the fluorescence decrease (λex= 325 nm, λem = 375 nm) caused by DHE displacement. […] Imax = (fraction DHE-bound to peptide at zero competitive ligands)/4.4 — the fold fluorescence change associated with DHE dissociation, see Figure 1A.

Another experiment has as its target T2, Aβ42 (Homo sapiens, UniProt P05067).
T2 construct: Small red spheres mark the Aβ42 peptide C-terminal residue, A42; purchased Sigma-Aldrich Corp
The experiment in a line: Sterol binding to Aβ42, pre-steady-state stopped-flow fluorescence. The method, then: To establish the rates at which Aβ42•ligand complexes form and dissociate, the rate constants governing the binding reactions were determined. DHE binding was monitored in real time using a stopped-flow fluorimeter via binding-induced changes in DHE fluorescence. The reactions are pseudo first order in [ligand] and kobs was obtained by least-squares fitting progress curves to a single-exponential equation ([44], [45]). kobs values were determined (in triplicate) at a series of Aβ42 concentrations and the averaged values are plotted versus [Aβ42] in Figure 2B. kon and koff are given by the slope and intercept of the kobs-versus-[Aβ42] plot obtained by linear least-square fitting ([44], [45]). […] The rate constants are compiled in Table 1.
Figure 2 Sterol binding to Aβ42—pre-steady state studies.A, DHE binding. Reactions were monitored via binding induced changes in DHE fluorescence using a stopped-flow fluorimeter (λex = 325, λem > 400 nm). Fluorescence intensity, I, is reported relative to the intensity in the absence of ligand, Io. […] C was rapidly mixed (1:1, v/v) with a solution identical except that Aβ42 was replaced by DHE (40 nM, 2.7 × Kd). The bindingreaction curve shown is the average of five independent progress curves. The averaged curve was a least-squares fit to a single-exponential equation and the resulting best fit (indicated by the red line) yielded kobs. B, DHE kon and koff. kobs values obtained as in Panel A were determined in triplicate at varying Aβ42 concentrations and the averaged values are shown plotted versus [Aβ42]. kon and koff are given by the slope and intercept of a linear least-squares fit of the kobsversus [Aβ42] plot. C and D, CH and CS displacement reactions.
Pre-steady-state binding of sterols to Aβ42 was monitored via the binding-induced change in DHE fluorescence (λex = 325, λem > 400 nm) using an Applied Photophysics SX20 stopped-flow fluorimeter.
Three progress curves (each an average of five independently obtained curves) were collected at five separate Aꞵ42 concentrations. The observed rate constant (kobs) at a given [Aβ42] was obtained by fitting the average of the three curves to a single-exponential equation using Pro-K software ([75]). kon and koff were obtained from the slopes and intercepts predicted by linear least-squares analysis of kobs versus [Aβ42] plots.
C. […] Progress curves were determined in triplicate and koff was obtained by least-squares fitting the averaged curves to a single-exponential equation using Pro-K.

T2 sequence (P05067 672-713 limits assumed): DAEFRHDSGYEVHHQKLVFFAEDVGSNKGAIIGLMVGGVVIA
T1 sequence (P05067 672-713 limits assumed): as above

Turning to `CC(C)[C@@H](C)/C=C/[C@@H](C)[C@H]1CC[C@H]2C3=CC=C4C[C@@H](O)CC[C@]4(C)C3=CC[C@]12C` [DHE, dehydroergosterol, reference compound], the Kd was 16 nM on Aβ42 monomer and 17 nM at Aβ42 (ratio of rate constants, read-out: koff/kon). Further, at Aβ42 (intercept of kobs versus [Aβ42] plot, stopped-flow, pH 7.4, 25 °C), the koff – broadly, a measure of how fast the partners let go of each other – turned out to be 1 s⁻¹. Moreover, the kon (usually the rate constant with which the complex forms) on Aβ42 (slope of kobs versus [Aβ42] plot, stopped-flow, pH 7.4, 25 °C) stood at 6e+07 M⁻¹ s⁻¹.
